The NIST ThermoML archive (doi:10.1016/j.jct.2018.01.019)

Assay: molar heat capacity at constant pressure
Conditions: 101.33 kPa, Crystal 2, Small sample (50 mg) DSC

O=[Si]=O [silicon dioxide]
Conditions | molar heat capacity at constant pressure [J/K/mol]
285 K | 43.21
290 K | 43.7
295 K | 44.22
300 K | 44.74
305 K | 45.21
310 K | 45.69
315 K | 46.16
320 K | 46.62
325 K | 47.09
330 K | 47.56
335 K | 48.02
340 K | 48.49
345 K | 48.94
350 K | 49.39
355 K | 49.78
360 K | 50.22
365 K | 50.62
370 K | 51.02
375 K | 51.38
380 K | 51.76
385 K | 52.15
390 K | 52.52
395 K | 52.89
400 K | 53.25
405 K | 53.61
410 K | 53.99
415 K | 54.34
420 K | 54.7
425 K | 55.03
430 K | 55.38
435 K | 55.74
440 K | 56.07
445 K | 56.42
450 K | 56.75
455 K | 57.1
460 K | 57.4
465 K | 57.69
470 K | 58.01
475 K | 58.29
480 K | 58.59
485 K | 58.87
490 K | 59.12
495 K | 59.37
500 K | 59.63
505 K | 59.91
510 K | 60.16
515 K | 60.41
520 K | 60.66
525 K | 60.91
530 K | 61.15
535 K | 61.41
540 K | 61.66
545 K | 61.92
550 K | 62.19
555 K | 62.45
560 K | 62.73
565 K | 63.01
570 K | 63.26
575 K | 63.49
580 K | 63.74
585 K | 64.01
590 K | 64.24
595 K | 64.46
600 K | 64.69
605 K | 64.89
610 K | 65.09
615 K | 65.3
620 K | 65.5
625 K | 65.73
630 K | 65.97
635 K | 66.17
640 K | 66.38
645 K | 66.62
650 K | 66.84
655 K | 67.01
660 K | 67.18
665 K | 67.38
670 K | 67.57
675 K | 67.75
680 K | 67.94
685 K | 68.16
690 K | 68.35
695 K | 68.56
700 K | 68.75
705 K | 68.95
710 K | 69.14
715 K | 69.35
720 K | 69.58
725 K | 69.69
